The values below come from ChEMBL document CHEMBL1131740, “N-substituted 4-(5-indolyl)benzoic acids. Synthesis and evaluation of steroid 5alpha-reductase type I and II inhibitory activity” (Bioorg Med Chem Lett, 1999).

Activity calls are given as the source filed them. No cut-off for these calls is given here.

Test [1] deals with T1, 3-oxo-5-alpha-steroid 4-dehydrogenase 2 (Homo sapiens) (UniProt P31213).
T1 sequence (whole entry): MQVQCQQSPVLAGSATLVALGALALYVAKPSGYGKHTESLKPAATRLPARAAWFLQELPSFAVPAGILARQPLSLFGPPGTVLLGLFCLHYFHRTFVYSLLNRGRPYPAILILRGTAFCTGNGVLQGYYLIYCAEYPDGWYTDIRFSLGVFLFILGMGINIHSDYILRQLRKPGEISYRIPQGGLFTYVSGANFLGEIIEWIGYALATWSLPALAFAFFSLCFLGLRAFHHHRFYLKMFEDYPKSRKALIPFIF
Put plainly: Percentage inhibition against human Steroid 5-alpha-reductase type 2 at 10 uM concentration using 18213 3H testosterone 210 nM as substrate.

For test [2], the target named is T2, 3-oxo-5-alpha-steroid 4-dehydrogenase 1 (Rattus norvegicus, UniProt P24008).
T2 sequence (P24008 whole entry): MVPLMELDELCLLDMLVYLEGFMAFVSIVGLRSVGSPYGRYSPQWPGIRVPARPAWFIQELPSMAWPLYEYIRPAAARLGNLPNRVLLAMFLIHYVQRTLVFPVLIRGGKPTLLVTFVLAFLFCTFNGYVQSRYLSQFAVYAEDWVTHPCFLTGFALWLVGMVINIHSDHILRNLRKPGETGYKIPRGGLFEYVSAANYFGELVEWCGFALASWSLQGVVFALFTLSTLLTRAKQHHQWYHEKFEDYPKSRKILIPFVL
Put plainly: Inhibition against rat Steroid 5-alpha-reductase type I at 10 uM concentration using 18213 3H testosterone 210 nM as substrate: No inhibition.

Test [3] deals with T3, 3-oxo-5-alpha-steroid 4-dehydrogenase 1 (Homo sapiens, UniProt P18405).
T3 sequence (P18405 whole entry): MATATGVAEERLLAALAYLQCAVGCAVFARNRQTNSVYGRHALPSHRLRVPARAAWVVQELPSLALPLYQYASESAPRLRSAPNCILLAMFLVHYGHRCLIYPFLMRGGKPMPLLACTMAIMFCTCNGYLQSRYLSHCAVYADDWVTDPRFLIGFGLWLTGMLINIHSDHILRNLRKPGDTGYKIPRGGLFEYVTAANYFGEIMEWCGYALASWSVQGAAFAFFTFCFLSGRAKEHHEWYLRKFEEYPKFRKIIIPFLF
Put plainly: Inhibitory concentration against human Steroid 5-alpha-reductase type I in DU 145 cell culture using 3H androstenedione 5 nM as substrate. It is filed as cell-based.

In test [4] the target is T4, 3-oxo-5-alpha-steroid 4-dehydrogenase 1 (Homo sapiens) (UniProt P18405).
T4 sequence (whole entry): T3 sequence (P18405 whole entry)
Put plainly: Inhibition against human 5-alpha-reductase type 1 Steroid 5-alpha-reductase type I culture at 10 uM concentration using 3H androstenedione 5 nM as substrate.

Test [5] concerns the target T1, 3-oxo-5-alpha-steroid 4-dehydrogenase 2 (Homo sapiens). Put plainly: Inhibition against human Steroid 5-alpha-reductase type 2 at 10 uM concentration using 18213 3H testosterone 210 nM as substrate.
Test [6] deals with T4, 3-oxo-5-alpha-steroid 4-dehydrogenase 1 (Homo sapiens). Put plainly: (§1) Inhibition against human Steroid 5-alpha-reductase type I in DU 145 cell culture at 10 uM concentration using 3H androstenedione 5 nM as substrate. Format: cell-based.
Test [7] deals with T5, 3-oxo-5-alpha-steroid 4-dehydrogenase 1 (Rattus norvegicus) (UniProt P24008).
T5 sequence (whole entry): T2 sequence (P24008 whole entry)
Put plainly: Inhibition against rat Steroid 5-alpha-reductase type I at 10 uM concentration using 18213 3H testosterone 210 nM as substrate.

In test [8] the target is T6, 3-oxo-5-alpha-steroid 4-dehydrogenase 2 (Homo sapiens, UniProt P31213).
T6 sequence (P31213 whole entry): T1 sequence (whole entry)
Put plainly: Inhibitory activity against human 5-alpha-reductase type 2 using 18213 3H testosterone 210 nM as substrate.

The target in test [9] is T4, 3-oxo-5-alpha-steroid 4-dehydrogenase 1 (Homo sapiens). Described as §1.
The target of test [10] is T1, 3-oxo-5-alpha-steroid 4-dehydrogenase 2 (Homo sapiens). Put plainly: Inhibition against human 5-alpha-reductase type 2 at 10 uM concentration using 18213 3H testosterone 210 nM as substrate.
The target in test [11] is T6, 3-oxo-5-alpha-steroid 4-dehydrogenase 2. Put plainly: Inhibitory activity against human Steroid 5-alpha-reductase type 2 using 18213 3H testosterone 210 nM as substrate.
Test [12] addresses T2, 3-oxo-5-alpha-steroid 4-dehydrogenase 1. Put plainly: Inhibitory activity against rat Steroid 5-alpha-reductase type I using 18213 3H testosterone 210 nM as substrate.
For test [13], the target named is T5, 3-oxo-5-alpha-steroid 4-dehydrogenase 1 (Rattus norvegicus). Put plainly: Inhibition against rat Steroid 5-alpha-reductase type I at 10 uM concentration using 18213 3H testosterone 210 nM as substrate; No inhibition.

A word on the inhibition: it is the percentage by which the read-out fell short of the control. As usually defined, the IC50 is the concentration that gives 50% inhibition. Read a high IC50 as lower potency.

Consider `O=C(O)c1ccc(-c2ccc3c(ccn3CC3CCCCC3)c2)cc1`, for which the inhibition was determined as 50% in test [1] and 81% in test [4]. The results for the IC50 result in test [2] and in test [3] were “Not Active” and 2.1 µM, respectively.
As to `O=C(O)c1ccc(-c2ccc3c(ccn3C(c3ccccc3)c3ccccc3)c2)cc1`, the inhibition in test [5] was determined as 40%; in test [6], 81%; in test [7] it was 26%. Half-maximal inhibition in test [3] (IC50) was put at 2.78 µM.
In the case of `O=C(O)c1ccc(-c2ccc3c(ccn3Cc3ccccc3)c2)cc1`, half-maximal inhibition in [8] (IC50) was put at 6.2 µM. For the same compound, the values for the inhibition in [9], in test [10] and in [7] were 67%, 60% and 12%, respectively.
Take `CCCCn1ccc2cc(-c3ccc(C(=O)O)cc3)ccc21`: the inhibition in test [5] was determined as 24%; in test [6] it was 72%; in [7] it was 17%.
For `CC(C)(C)NC(=O)[C@H]1CC[C@H]2[C@@H]3CC=C4C=C(C(=O)O)CC[C@]4(C)[C@H]3CC[C@]12C` [EPRISTERIDE], the values for the 50% inhibitory concentration (IC50) in test [11], in test [3] and in test [12] were 0.003 µM, 1.1 µM and 0.045 µM, respectively.
In the case of `O=C(O)c1ccc(-c2ccc3c(ccn3C3CCCCC3)c2)cc1`, the inhibition in test [1] is 36%. Also, the inhibition result in test [13] is “inactive”.
With `CCCC(CCC)n1ccc2cc(-c3ccc(C(=O)O)cc3)ccc21`, the results for the inhibition in [5], in test [6] and in test [7] were 10%, 75% and 43%, respectively. For the same compound, half-maximal inhibition in [3] (IC50) required 3.2 µM.
